According to patent US10076519B2 (CYTOKINETICS, INC., priority 2010, dated 2018):

System: rabbit skeletal myofibrils (fast skeletal myofibrils)
Test: Activation of fast skeletal myofibrils (PUMA assay, PK/LDH-coupled ATPase at pCa25)
Format: biochemical
Conditions: AC1.4 determined according to the procedure of Example 39; reported as class symbols
Method in brief: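 ATPase activity of Triton-washed rabbit skeletal myofibrils, roughly 90% fast fibres, tracked by NADH loss at 340 nm through a PK/LDH-coupled ADP-regenerating system. Calcium set to 25% of maximal activity (pCa25), in PIPES 12 mM pH 6.8 with 2 mM MgCl2 and 1 mM DTT; AC1.4 reported.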

Row | Mean AC1.4 | SMILES
1 | B (B=1-10 uM) | CC(C)(CNc1ccc(-c2ccnc(N)c2)nn1)c1ccc(F)cc1 [[6-(2-amino(4-pyridyl))pyridazin-3-yl][2-(4-fluorophenyl)-2-methylpropyl]amine]
2 | A (A=<1 uM) | CC(C)(CNc1ccc(-c2ccc3nc(N)[nH]c3c2)nn1)c1ccc(F)cc1 [[6-(2-aminobenzimidazol-5-yl)pyridazin-3-yl][2-(4-fluorophenyl)-2-methylpropyl]amine]
3 | B (B=1-10 uM) | CC(C)(CNc1ccc(-c2c[nH]c(N)n2)nn1)c1ccc(F)cc1 [[6-(2-aminoimidazol-4-yl)pyridazin-3-yl][2-(4-fluorophenyl)-2-methylpropyl]amine]
4 | D (D=>20 uM) | Nc1nc(-c2ccc(NCC3(c4ncccc4F)CCC3)nn2)c[nH]1 [[6-(2-aminoimidazol-4-yl)pyridazin-3-yl]{[(3-fluoro(2-pyridyl))cyclobutyl]methyl}amine]
5 | B (B=1-10 uM) | CC(C)(CNc1ccc(-c2cnc(N)nc2)nn1)c1ccc(F)cc1 [[6-(2-aminopyrimidin-5-yl)pyridazin-3-yl][2-(4-fluorophenyl)-2-methylpropyl]amine]
6 | A (A=<1 uM) | CC(C)(CNc1ccc(-c2ccccc2Cl)nn1)c1ccc(F)cc1 [[6-(2-chlorophenyl)pyridazin-3-yl][2-(4-fluorophenyl)-2-methylpropyl]amine]
7 | D (D=>20 uM) | CC(C)(CNc1ccc(-c2ccc3[nH]nc(N)c3c2)nn1)c1ncco1 [[6-(3-amino(1H-indazol-5-yl))pyridazin-3-yl](2-methyl-2-(1,3-oxazol-2-yl)propyl)amine]
8 | D (D=>20 uM) | CC(CNc1ccc(-c2ccc3[nH]nc(N)c3c2)nn1)N1CCCCC1 (stereo not shown) [[6-(3-amino(1H-indazol-5-yl))pyridazin-3-yl](2-piperidylpropyl)amine]
9 | B (B=1-10 uM) | Nc1n[nH]c2ccc(-c3ccc(NCC(F)(F)c4ccc(F)cc4)nn3)cc12 [[6-(3-amino(1H-indazol-5-yl))pyridazin-3-yl][2,2-difluoro-2-(4-fluorophenyl)ethyl]amine]
10 | A (A=<1 uM) | CC(C)(CNc1ccc(-c2ccc3[nH]nc(N)c3c2)nn1)c1ncc(F)cc1F [[6-(3-amino(1H-indazol-5-yl))pyridazin-3-yl][2-(3,5-difluoro(2-pyridyl))-2-methylpropyl]amine]
11 | B (B=1-10 uM) | CC(C)(CNc1ccc(-c2ccc3[nH]nc(N)c3c2)nn1)c1ncccc1F [[6-(3-amino(1H-indazol-5-yl))pyridazin-3-yl][2-(3-fluoro(2-pyridyl))-2-methylpropyl]amine]
12 | A (A=<1 uM) | COc1cccc(C(C)(C)CNc2ccc(-c3ccc4[nH]nc(N)c4c3)nn2)c1 [[6-(3-amino(1H-indazol-5-yl))pyridazin-3-yl][2-(3-methoxyphenyl)-2-methylpropyl]amine]
13 | A (A=<1 uM) | CC(C)(CNc1ccc(-c2ccc3[nH]nc(N)c3c2)nn1)c1ccc(F)cc1 [[6-(3-amino(1H-indazol-5-yl))pyridazin-3-yl][2-(4-fluorophenyl)-2-methylpropyl]amine]
14 | B (B=1-10 uM) | CC(C)(CNc1ccc(-c2ccc3[nH]nc(N)c3c2)nn1)c1ccc(F)cn1 [[6-(3-amino(1H-indazol-5-yl))pyridazin-3-yl][2-(5-fluoro(2-pyridyl))-2-methylpropyl]amine]
15 | A (A=<1 uM) | Cc1ccccc1C(C)(C)CNc1ccc(-c2ccc3[nH]nc(N)c3c2)nn1 [[6-(3-amino(1H-indazol-5-yl))pyridazin-3-yl][2-methyl-2-(2-methylphenyl)propyl]amine]
16 | A (A=<1 uM) | Cc1ccc(C(C)(C)CNc2ccc(-c3ccc4[nH]nc(N)c4c3)nn2)cc1 [[6-(3-amino(1H-indazol-5-yl))pyridazin-3-yl][2-methyl-2-(4-methylphenyl)propyl]amine]

Row | Mean AC1.4 | SMILES
17 | C (C=10-20 uM) | COCc1ccccc1C(C)(C)CNc1ccc(-c2ccc3[nH]nc(N)c3c2)nn1 [[6-(3-amino(1H-indazol-5-yl))pyridazin-3-yl]{2-[2-(methoxymethyl)phenyl]-2-methylpropyl}amine]
18 | C (C=10-20 uM) | CC(C)(CNc1ccc(-c2ccc3[nH]nc(N)c3c2)nn1)c1cccc(CN)c1 [[6-(3-amino(1H-indazol-5-yl))pyridazin-3-yl]{2-[3-(aminomethyl)phenyl]-2-methylpropyl}amine]
19 | D (D=>20 uM) | CC(C)(CNc1ccc(-c2ccc3[nH]nc(N)c3c2)nn1)c1ccc(CN)cc1 [[6-(3-amino(1H-indazol-5-yl))pyridazin-3-yl]{2-[4-(aminomethyl)phenyl]-2-methylpropyl}amine]
20 | A (A=<1 uM) | Nc1n[nH]c2ccc(-c3ccc(NCC4(c5ccccc5F)CCC4)nn3)cc12 [[6-(3-amino(1H-indazol-5-yl))pyridazin-3-yl]{[(2-fluorophenyl)cyclobutyl]meth-yl}amine]
21 | A (A=<1 uM) | Nc1n[nH]c2ccc(-c3ccc(NCC4(c5ccccc5F)CCCC4)nn3)cc12 [[6-(3-amino(1H-indazol-5-yl))pyridazin-3-yl]{[(2-fluorophenyl)cyclopentyl]meth-yl}amine]
22 | A (A=<1 uM) | Nc1n[nH]c2ccc(-c3ccc(NCC4(c5ccccc5F)CC4)nn3)cc12 [[6-(3-amino(1H-indazol-5-yl))pyridazin-3-yl]{[(2-fluorophenyl)cyclopropyl]meth-yl}amine]
23 | A (A=<1 uM) | Nc1n[nH]c2ccc(-c3ccc(NCC4(c5ncccc5F)CCC4)nn3)cc12 [[6-(3-amino(1H-indazol-5-yl))pyridazin-3-yl]{[(3-fluoro(2-pyridyl))cyclobutyl]methyl}amine]
24 | A (A=<1 uM) | Nc1n[nH]c2ccc(-c3ccc(NCC4(c5ccc(F)cc5)CCC4)nn3)cc12 [[6-(3-amino(1H-indazol-5-yl))pyridazin-3-yl]{[(4-fluorophenyl)cyclobutyl]meth-yl}amine]
25 | A (A=<1 uM) | Nc1n[nH]c2ccc(-c3ccc(NCC4(c5ccc(F)cc5)CCCCC4)nn3)cc12 [[6-(3-amino(1H-indazol-5-yl))pyridazin-3-yl]{[(4-fluorophenyl)cyclohexyl]meth-yl}amine]
26 | A (A=<1 uM) | Nc1n[nH]c2ccc(-c3ccc(NCC4(c5ccc(F)cc5)CCCC4)nn3)cc12 [[6-(3-amino(1H-indazol-5-yl))pyridazin-3-yl]{[(4-fluorophenyl)cyclopentyl]meth-yl}amine]
27 | A (A=<1 uM) | Nc1n[nH]c2ccc(-c3ccc(NCC4(c5ccc(F)cc5)CC4)nn3)cc12 [[6-(3-amino(1H-indazol-5-yl))pyridazin-3-yl]{[(4-fluorophenyl)cyclopropyl]meth-yl}amine]
28 | A (A=<1 uM) | Nc1n[nH]c2ccc(-c3ccc(NCC4(c5ccc(F)cn5)CCC4)nn3)cc12 [[6-(3-amino(1H-indazol-5-yl))pyridazin-3-yl]{[(5-fluoro(2-pyridyl))cyclobutyl]methyl}amine]
29 | B (B=1-10 uM) | CC(C)(CNc1ccc(-c2ccc3c(N)n[nH]c3c2)nn1)c1ncccc1F [[6-(3-amino(1H-indazol-6-yl))pyridazin-3-yl][2-(3-fluoro(2-pyridyl))-2-methylpropyl]amine]
30 | A (A=<1 uM) | CC(C)(CNc1ccc(-c2ccc3c(N)n[nH]c3c2)nn1)c1ccc(F)cc1 [[6-(3-amino(1H-indazol-6-yl))pyridazin-3-yl][2-(4-fluorophenyl)-2-methylpropyl]amine]
31 | C (C=10-20 uM) | CC(C)(CNc1ccc(-c2ccc3c(N)n[nH]c3c2)nn1)c1ccc(F)cn1 [[6-(3-amino(1H-indazol-6-yl))pyridazin-3-yl][2-(5-fluoro(2-pyridyl))-2-methylpropyl]amine]

Same assay, conditions: median AC1.4 class, procedure of Example 39

Row | Mean AC1.4 | SMILES
32 | B (B=1-10 uM) | Nc1nccc(-c2ccc(NCC3(c4ncccc4F)CCC3)nn2)n1 [[6-(2-aminopyrimidin-4-yl)pyridazin-3-yl]{[(3-fluoro(2-pyridyl))cyclobutyl]methyl}amine]
33 | B (B=1-10 uM) | Nc1ncc(-c2ccc(NC3(c4ccc(F)cc4)CCC3)nn2)cn1 [[6-(2-aminopyrimidin-5-yl)pyridazin-3-yl][(4-fluorophenyl)cyclobutyl]amine]
34 | B (B=1-10 uM) | Nc1ncc(-c2ccc(NCC3(c4ncccc4F)CCC3)nn2)cn1 [[6-(2-aminopyrimidin-5-yl)pyridazin-3-yl]{[(3-fluoro(2-pyridyl))cyclobutyl]methyl}amine]
35 | B (B=1-10 uM) | CC(C)(CNc1ccc(-c2cccc(-c3nn[nH]n3)c2)nn1)c1ncccc1F [[6-(3-(2H-1,2,3,4-tetraazol-5-yl)phenyl)pyridazin-3-yl][2-(3-fluoro(2-pyridyl))-2-methylpropyl]amine]
36 | A (A=<1 uM) | Fc1cccnc1[C@]1(CNc2ccc(-c3cccc(-c4nn[nH]n4)c3)nn2)C[C@@H](F)C1 [[6-(3-(2H-1,2,3,4-tetraazol-5-yl)phenyl)pyridazin-3-yl]{[3-fluoro-1-(3-fluoro(2-pyridyl))cyclobutyl]methyl}amine]
37 | A (A=<1 uM) | Fc1cccnc1C1(CNc2ccc(-c3cccc(-c4nn[nH]n4)c3)nn2)CCC1 [[6-(3-(2H-1,2,3,4-tetraazol-5-yl)phenyl)pyridazin-3-yl]{[(3-fluoro(2-pyridyl))cyclobutyl]methyl}amine]
38 | B (B=1-10 uM) | Nc1n[nH]c2ccc(-c3ccc(NC4(c5ncccc5F)CCC4)nn3)cc12 [[6-(3-amino(1H-indazol-5-yl))pyridazin-3-yl][(3-fluoro(2-pyridyl))cyclobutyl]amine]
39 | A (A=<1 uM) | Nc1n[nH]c2ccc(-c3ccc(NC[C@]4(c5ncccc5F)C[C@H](F)C4)nn3)cc12 [[6-(3-amino(1H-indazol-5-yl))pyridazin-3-yl]{[3-fluoro-1-(3-fluoro(2-pyridyl))cyclobutyl]methyl}amine]

Same assay, conditions: median AC1.4 reported as class; procedure of Example 39

Row | Mean AC1.4 | SMILES
40 | B (B=1-10 uM) | Nc1ncc(-c2ccc(NC[C@]3(c4ncccc4F)C[C@H](F)C3)nn2)cn1 [[6-(2-aminopyrimidin-5-yl)pyridazin-3-yl]{[3-fluoro-1-(3-fluoro(2-pyridyl))cyclobutyl]methyl}amine]
